Data published in PubChem BioAssay AID1845202 (Molecular Pharmacology Branch, DTP, NCI, 2023).

Test system: DMS 114 tumor spheroids, viability % test/control
Assay: Anticancer human tumor DMS 114 cell line growth inhibition;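 also: spheroids exposed to compounds for 7 days before read-out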;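 as to viability, T/C: luminescence used as a proxy for viable cells; 100% = DMSO vehicle control viability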
Settings: spheroids with HUVEC and MSC; for IC50: curve of first compound; for viability, T/C: stronger effect = lower value
Method in brief: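 Single agents and combinations were tested on spheroids built from tumor cells plus HUVEC and hMSC, at half-log dilutions starting at or near clinical Cmax, else 10 microM; final DMSO 0.25% (v/v).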

[1] = second compound 30 pM, first compound 0.00949 µM
[2] = second compound 30 pM, first compound 0.03 µM
[3] = second compound 30 pM, first compound 0.0949 µM
[4] = second compound 30 pM, first compound 0.3 µM
[5] = second compound 30 pM, first compound 0.949 µM
[6] = second compound 30 pM, first compound 3 µM
[7] = second compound 94.9 pM, first compound 0.00949 µM
[8] = second compound 94.9 pM, first compound 0.03 µM
[9] = second compound 94.9 pM, first compound 0.0949 µM
[10] = second compound 94.9 pM, first compound 0.3 µM
[11] = second compound 94.9 pM, first compound 0.949 µM
[12] = second compound 94.9 pM, first compound 3 µM
[13] = second compound 0.0003 µM, first compound 0.00949 µM
[14] = second compound 0.0003 µM, first compound 0.03 µM
[15] = second compound 0.0003 µM, first compound 0.0949 µM
[16] = second compound 0.0003 µM, first compound 0.3 µM
[17] = second compound 0.0003 µM, first compound 0.949 µM
[18] = second compound 0.0003 µM, first compound 3 µM
[19] = second compound 0.000949 µM, first compound 0.00949 µM
[20] = second compound 0.000949 µM, first compound 0.03 µM
[21] = second compound 0.000949 µM, first compound 0.0949 µM
[22] = second compound 0.000949 µM, first compound 0.3 µM
[23] = second compound 0.000949 µM, first compound 0.949 µM
[24] = second compound 0.000949 µM, first compound 3 µM
[25] = second compound 0.003 µM, first compound 0.00949 µM
[26] = second compound 0.003 µM, first compound 0.03 µM
[27] = second compound 0.003 µM, first compound 0.0949 µM
[28] = second compound 0.003 µM, first compound 0.3 µM
[29] = second compound 0.003 µM, first compound 0.949 µM
[30] = second compound 0.003 µM, first compound 3 µM

| Compound | IC50 (second compound 30 pM) [nM] | IC50 (second compound 94.9 pM) [nM] | IC50 (second compound 0.0003 µM) [nM] | IC50 (second compound 0.000949 µM) [nM] | IC50 (second compound 0.003 µM) [nM] | viability, T/C [1] [%] | viability, T/C [2] [%] | viability, T/C [3] [%] | viability, T/C [4] [%] | viability, T/C [5] [%] | viability, T/C [6] [%] | viability, T/C [7] [%] | viability, T/C [8] [%] | viability, T/C [9] [%] | viability, T/C [10] [%] | viability, T/C [11] [%] | viability, T/C [12] [%] | viability, T/C [13] [%] | viability, T/C [14] [%] | viability, T/C [15] [%] | further results |
| --- | --- | --- | --- | --- | --- | --- | --- | --- | --- | --- | --- | --- | --- | --- | --- | --- | --- | --- | --- | --- | --- |
| Cc1sc2c(c1C)C(c1ccc(Cl)cc1)=NC(CC(=O)Nc1ccc(O)cc1)c1nnc(C)n1-2 (stereo not given) + COc1cc2c(cc1O)CCNC21CSC2c3c(OC(C)=O)c(C)c4c(c3C(COC1=O)N1C(O)C3Cc5cc(C)c(OC)c(O)c5C(C21)N3C)OCO4 | 165 | 97.3 | < 9.49 | < 9.49 | < 9.49 | 107 | 102 | 65.1 | 33.3 | 5.12 | 3.29 | 101 | 80.1 | 55.4 | 12.1 | 5.83 | 1.91 | 41.7 | 27.1 | 13.1 | viability, T/C [16]: 5.79%; viability, T/C [17]: 1.67%; viability, T/C [18]: 0.76%; viability, T/C [19]: 3.12%; viability, T/C [20]: 1.58%; viability, T/C [21]: 1.35%; viability, T/C [22]: 0.73%; viability, T/C [23]: 0.39%; viability, T/C [24]: 0.19%; viability, T/C [25]: 0.2%; viability, T/C [26]: 0.19%; viability, T/C [27]: 0.17%; viability, T/C [28]: 0.13%; viability, T/C [29]: 0.16%; viability, T/C [30]: 0.3% |
| Cn1ncnc1[C@H]1c2n[nH]c(=O)c3cc(F)cc(c23)N[C@@H]1c1ccc(F)cc1 + COc1cc2c(cc1O)CCNC21CSC2c3c(OC(C)=O)c(C)c4c(c3C(COC1=O)N1C(O)C3Cc5cc(C)c(OC)c(O)c5C(C21)N3C)OCO4 | 428 | 104 | < 9.49 | < 9.49 | < 9.49 | 91.6 | 91 | 78.4 | 59.6 | 29.9 | 10.4 | 79.2 | 63.3 | 54.6 | 33.3 | 16.5 | 7.38 | 21.8 | 20.3 | 17.8 | viability, T/C [16]: 16.6%; viability, T/C [17]: 10.7%; viability, T/C [18]: 5.92%; viability, T/C [19]: 2.67%; viability, T/C [20]: 3.65%; viability, T/C [21]: 3.4%; viability, T/C [22]: 2.16%; viability, T/C [23]: 1.41%; viability, T/C [24]: 0.78%; viability, T/C [25]: 0.32%; viability, T/C [26]: 0.33%; viability, T/C [27]: 0.3%; viability, T/C [28]: 0.32%; viability, T/C [29]: 0.28%; viability, T/C [30]: 0.49% |
